# Assay results from patent US5968791A, “Plant lysophosphatidic acid acyltransferases” (Calgene, Inc., priority 1995, dated 1999).
# T1: coconut medium-chain LPAAT (Cocos nucifera, UniProt Q42670)
# T1 construct: The frozen coconut P2 preparation is thawed and diluted in a volume of P2 Buffer; from tissue; host or cells: immature coconut endosperm, solubilized S3 supernatant of P2 membranes
# T1 sequence (Q42670 1-308): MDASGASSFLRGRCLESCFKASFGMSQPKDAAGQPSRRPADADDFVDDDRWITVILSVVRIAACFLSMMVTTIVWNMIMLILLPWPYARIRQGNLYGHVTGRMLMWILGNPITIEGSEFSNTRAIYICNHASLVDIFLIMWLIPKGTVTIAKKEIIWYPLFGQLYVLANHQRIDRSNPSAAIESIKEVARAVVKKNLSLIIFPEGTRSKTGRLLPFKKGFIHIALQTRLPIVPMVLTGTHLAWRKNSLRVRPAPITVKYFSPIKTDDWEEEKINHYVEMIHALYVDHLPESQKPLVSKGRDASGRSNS
# T2: coconut LPAAT (Cocos nucifera, UniProt Q42670)
# T2 sequence (Q42670 1-308): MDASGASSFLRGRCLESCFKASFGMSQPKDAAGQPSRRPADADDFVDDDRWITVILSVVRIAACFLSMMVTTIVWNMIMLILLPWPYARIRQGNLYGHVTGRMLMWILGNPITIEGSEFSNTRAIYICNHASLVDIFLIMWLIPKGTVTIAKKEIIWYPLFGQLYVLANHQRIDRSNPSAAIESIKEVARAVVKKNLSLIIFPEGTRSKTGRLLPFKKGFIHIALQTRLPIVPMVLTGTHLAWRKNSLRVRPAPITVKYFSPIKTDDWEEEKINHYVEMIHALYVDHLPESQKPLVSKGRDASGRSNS
# Legend:
# [1] = molecular target: T1, coconut medium-chain LPAAT; assay: Assay of solubilized coconut LPAAT (S3 preparation) with phospholipid activation; type: biochemical; conditions: for effect on LPAAT activity of the coconut S3 preparation: added at 1 mM; for reduction of LPAAT activity of the coconut S3 preparation: added at 10 mM
# Experimental: After solubilization of LPAAT protein from plant membranes as described below, modification of the above assay conditions is required in order to detect maximum LPAAT activity. This is especially important after the solubilized LPAAT has been chromatographed on at least one column. The important modification to the assay is the addition, at the start of the assay procedure, of 1 μl of a concentrated phospholipid (PL) solution to 20 μl of the LPAAT-containing sample in a glass vial. The high concentrations of CHAPS (at least 1% w/v) and NaCl (typically 0.5M or greater) in the solubilized LPAAT preparation aid in dispersal of the phospholipids. The phospholipid solution is obtained by sonicating crude soybean phospholipids (L-phosphatidylcholine from soybean, "Type IVs" obtained from Sigma Chemical Company, St. Louis) at 50 mg/ml in 0.5% (w/v) CHAPS (3-[(3-cholamidopropyl) -dimethylammonio]-1-propane-sulfonate) until a uniform suspension is obtained.
# The remaining assay ingredients (as described above), with the exception of the acyl-CoA substrate, are then added as 219 μl of a mixture. […] Radiolabeled acyl-CoA (10 μl, or an appropriately adjusted volume as indicated above) is added to start the LPAAT-catalyzed reaction and the rest of the assay procedure is completed as described above.
# All steps are carried out at 0-4° C. The frozen coconut P2 preparation is thawed and diluted in a volume of P2 Buffer to achieve a protein concentration of 0.94 mg/ml P2 protein. Protein concentration is determined by Coomassie dye staining relative to a bovine serum albumin standard. The P2 membrane suspension is then diluted with an equal volume of Solubilization Buffer (50 mM HEPES-NaOH, pH 7.5, […], 20% (w/v) glycerol, 4.5% (w/v) CHAPS, 100 μM Pefabloc, 1 μM leupeptin, 1 μM Pepstatin A, and 5 mM β-ME), resulting in final concentrations of 1M NaCl, 2.25% (w/v) detergent, and 0.47 mg/ml protein. These component concentrations, and the resulting detergent/protein ratio of 48/1 (w/w), are important for optimal solubilization. The preparation is then incubated on ice for 30 minutes with occasional, gentle stirring, followed by centrifugation at 252,000×g for 2 hours. The resulting supernatant fraction (S3) is filtered through buffer-wetted Miracloth, and may then be stored frozen (-70) with only slight loss of activity. Optimally, it is applied to chromatography columns without an intervening freeze-thaw cycle.
# Assay of the coconut medium-chain LPAAT activity after solubilization (S3 preparation) and reactivation with PLs, using different acyl-CoA substrates, provides the following results (Table 3). In all these assays the acceptor substrate is 12:0-LPA.
# Rapeseed LPAAT = assay: LPAAT activity assay, rapeseed P2 membrane preparation; type: biochemical, Brassica napus; conditions: acyl-CoA donor varied, acceptor 12:0-LPA
# Experimental: (§1) To assay for LPAAT activity, the sample is incubated with lysophosphatidic acid (LPA) and acyl-coenzyme A (acyl-CoA) substrates in buffered solution. The acyl substituents of the two substrates are chosen to correspond with the specificity of the enzyme being measured. For example, to measure activity of an LPAAT having preference for medium-chain substrates, lauroyl-LPA (lauroyl-lysophosphatidic acid) and lauroyl-CoA may be used, to measure activity of an LPAAT preferring longer-chain acyl groups, oleoyl-LPA and oleoyl-CoA may be used, to measure activity of an LPAAT preferring very-long chain substrate, erucyl-LPA and erucyl-CoA may be used, and so on, depending upon the type of LPAAT to be tested. The acyl group of one substrate is radioactively labeled in order to detect the product formed. In the examples which follow the acyl substituent of the acyl-CoA substrate is radiolabeled with ^14 C in the carboxyl group. LPAAT activity results in transfer of this acyl group from the acyl-CoA "donor" substrate to the LPA "acceptor" substrate, converting the latter into the product, phosphatidic acid (PA). LPAAT activity is measured as the amount of radioactive product formed in a given assay time. The PA product is radioactive as a result of the transferred radiolabeled acyl group at the central carbon atom of the molecule, and the quantity of PA formed may be determined by measuring radioactivity of the PA fraction. For this measurement, the PA is first separated from the acyl-CoA substrate by solvent partitioning, or by thin-layer chromatography (TLC).
# (§2) 20 μl of the sample to be assayed for LPAAT activity is mixed with 217.5 μl of an assay ingredient mixture in a 4-ml, screw-cap vial. […] The incubation takes place in a water bath at 30° C., for 20-30 minutes.
# (§3) To stop the assay, 0.25 ml of 1M KCl in 0.2M H3 PO4 is added to the vial. At this point, 40 μl BSA (bovine serum albumin, fraction V) at 1 mg/ml are added, followed by 0.75 ml of a solution of 67 μg/ml unlabeled PA (acting as a "carrier" to facilitate partitioning) in chloroform/methanol (2:1, v/v). The chain lengths of the PA acyl groups are chosen to correspond to those used in the assay substrates. Upon thorough mixing of these components the radiolabeled PA product of the LPAAT reaction partitions into the organic phase and away from the unreacted acyl-CoA and LPA. The vial is centrifuged briefly at low speed to facilitate the separation of organic (lower) and aqueous (upper) phases. The aqueous phase is then removed and discarded. The total radioactivity extracted into the organic phase is determined by liquid scintillation counting; a 100 μl sample of the organic phase is transferred to a 20 ml scintillation vial and allowed to dry, and scintillation fluid (3-5 ml) is added to the vial. The radioactivity of the sample, after subtraction of the "minus-enzyme" or "minus-LPA" radioactivities, is taken as an approximate indication of the amount of PA formed in the LPAAT-catalyzed reaction and therefore of LPAAT activity.
# A more accurate estimation of the LPAAT activity may be obtained by separating the PA product from these contaminants by TLC. The remaining organic phase is applied to a silica TLC plate. […] After the plate has dried, the distribution of radioactivity is visualized and quantitated using an AMBIS radioanalytic imaging system (AMBIS Systems Inc., San Diego, Calif.). From prior application of standard lipid components the Rf of the PA is known. The radioactivity associated with the PA spot is expressed as a percentage of the total radioactivity of the assay sample loaded on the plate. This ratio provides an indication of the proportion of the scintillation counts which represent the PA product, and may be used to correct the counts to obtain the total PA radioactivity formed in the assay.
# A P2 membrane homogenate from immature embryos of developing rapeseed (Brassica napus) seeds is prepared essentially as described above, except as noted below.
# coconut LPAAT = molecular target: T2, coconut LPAAT; assay: LPAAT activity assay, coconut P2 membrane preparation; type: biochemical; design: white endosperm tissue lining the inside of the endocarp can be dissected and collected; from tissue; host or cells: immature coconut endosperm, P2 membrane fraction; conditions: for effect on medium-chain LPAAT activity: coconut P2
# Experimental: as §1, §2, §3
# A more accurate estimation of the LPAAT activity may be obtained by separating the PA product from these contaminants by TLC. The remaining organic phase is applied to a silica TLC plate. Ascending chromatography is carried out for 50 minutes, using the solvent mixture chloroform/pyridine/88% formic acid (50:30:7, v/v). After the plate has dried, the distribution of radioactivity is visualized and quantitated using an AMBIS radioanalytic imaging system (AMBIS Systems Inc., San Diego, Calif.). From prior application of standard lipid components the Rf of the PA is known. The radioactivity associated with the PA spot is expressed as a percentage of the total radioactivity of the assay sample loaded on the plate. This ratio provides an indication of the proportion of the scintillation counts which represent the PA product, and may be used to correct the counts to obtain the total PA radioactivity formed in the assay. […]
# bay LPAAT = assay: LPAAT activity assay, California bay P2 membrane preparation; type: biochemical, Umbellularia californica; conditions: for detergent concentration in the assay that inhibits long-chain LPAAT activity completely: 18:1-CoA and 18:1-LPA, concentrations w/v; for detergent concentration tolerated without complete loss of activity: 1-hour exposure, diluted prior to assay
# Experimental: To assay for LPAAT activity, the sample is incubated with lysophosphatidic acid (LPA) and acyl-coenzyme A (acyl-CoA) substrates in buffered solution. The acyl substituents of the two substrates are chosen to correspond with the specificity of the enzyme being measured. […] The acyl group of one substrate is radioactively labeled in order to detect the product formed. In the examples which follow the acyl substituent of the acyl-CoA substrate is radiolabeled with ^14 C in the carboxyl group. LPAAT activity results in transfer of this acyl group from the acyl-CoA "donor" substrate to the LPA "acceptor" substrate, converting the latter into the product, phosphatidic acid (PA). LPAAT activity is measured as the amount of radioactive product formed in a given assay time. The PA product is radioactive as a result of the transferred radiolabeled acyl group at the central carbon atom of the molecule, and the quantity of PA formed may be determined by measuring radioactivity of the PA fraction. For this measurement, the PA is first separated from the acyl-CoA substrate by solvent partitioning, or by thin-layer chromatography (TLC).
# [2] = P2 membrane preparation, acyl-CoA donor varied, acceptor 12:0-LPA
molecule,measurement,setting,value
CCCCCC(=O)SCCNC(=O)CCNC(=O)[C@H](O)C(C)(C)COP(=O)(O)OP(=O)(O)OC[C@H]1O[C@@H](n2cnc3c(N)ncnc32)[C@H](O)[C@@H]1OP(=O)(O)O [6:0],"LPAAT Activity, solubilized coconut LPAAT","[1]; radioactivity of PA product resolved on TLC, after 30 min assay, S3 reactivated with PLs, acceptor 12:0-LPA",1 cpm
same,LPAAT Activity from Rapeseed,Rapeseed LPAAT,0 pmol PA formed/30 min assay
same,LPAAT Activity from Coconut,coconut LPAAT; [2],3 pmol PA formed/30 min assay
same,LPAAT Activity from Bay,bay LPAAT; [2],1 pmol PA formed/30 min assay
"C[C@H](CCC(=O)NCCC[N+](C)(C)CCCS(=O)(=O)[O-])[C@H]1CC[C@H]2[C@@H]3[C@H](O)C[C@@H]4C[C@H](O)CC[C@]4(C)[C@H]3C[C@H](O)[C@]12C [CHAPS, 3-[(3-cholamidopropyl) -dimethylammonio]-1-propane-sulfonate]",concentration above which inhibitory in the medium-chain LPAAT assay,coconut LPAAT; coconut medium-chain LPAAT assay,above 0.1 % (w/v)
same,inhibition at 5000 µg/mL,coconut LPAAT; read-out: LPAAT activity loss,50%
[Ca+2] [Ca^2+],effect on LPAAT activity of the coconut S3 preparation,[1],without significant effect
same,reduction of LPAAT activity of the coconut S3 preparation,[1],≥ 50%
CC(C)(COP(=O)(O)OP(=O)(O)OC[C@H]1O[C@@H](n2cnc3c(N)ncnc32)[C@H](O)[C@@H]1OP(=O)(O)O)[C@@H](O)C(=O)NCCC(=O)NCCS [CoA],effect on medium-chain LPAAT activity,coconut LPAAT; 0.1 mM in the assay system,unaffected
[Mg+2] [Mg^2+],effect on LPAAT activity of the coconut S3 preparation,[1],without significant effect
same,reduction of LPAAT activity of the coconut S3 preparation,[1],≥ 50%
[Mn+2] [Mn^2+],effect on LPAAT activity of the coconut S3 preparation,[1],without significant effect
same,reduction of LPAAT activity of the coconut S3 preparation,[1],≥ 50%
"CCCCCCCCCCCCOS(=O)(=O)[O-].[Na+] [SDS, sodium dodecyl sulfate]",detergent concentration in the assay that inhibits long-chain LPAAT activity completely,bay LPAAT; bay P2 preparation,0.002%
CCCCCCCCCCCCCC[N+](C)(C)CCCS(=O)(=O)[O-] [Zwittergent 3-14],detergent concentration in the assay that inhibits long-chain LPAAT activity completely,bay LPAAT; bay P2 preparation,0.005%
Nc1ncnc2c1ncn2[C@@H]1O[C@H](COP(=O)(O)OP(=O)(O)OP(=O)(O)O)[C@@H](O)[C@H]1O [adenosine-5'-triphosphate],effect on medium-chain LPAAT activity,coconut LPAAT; 2 mM in the assay system,unaffected
CCCCCCCCO[C@@H]1O[C@H](CO)[C@@H](O)[C@H](O)[C@H]1O [octyl glucoside],detergent concentration tolerated without complete loss of activity,bay LPAAT; bay P2 preparation,0.5%
same,detergent concentration in the assay that inhibits long-chain LPAAT activity completely,bay LPAAT; bay P2 preparation,0.1%
C[C@H](CCC(=O)O)[C@H]1CC[C@H]2[C@@H]3CC[C@@H]4C[C@H](O)CC[C@]4(C)[C@H]3C[C@H](O)[C@]12C [sodium deoxycholate],detergent concentration in the assay that inhibits long-chain LPAAT activity completely,bay LPAAT; bay P2 preparation,0.1%
Triton X100,detergent concentration tolerated without complete loss of activity,bay LPAAT; bay P2 preparation,0.1%
same,detergent concentration in the assay that inhibits long-chain LPAAT activity completely,bay LPAAT; bay P2 preparation,0.03%
Tween 20,detergent concentration tolerated without complete loss of activity,bay LPAAT; bay P2 preparation,2.5%
same,detergent concentration in the assay that inhibits long-chain LPAAT activity completely,bay LPAAT; bay P2 preparation,1%
lysophosphatidylcholine,effect on medium-chain LPAAT activity,coconut LPAAT; 60 μM in the assay system,unaffected
"18:1-ACP: 18:1 acyl-ACP tested as LPAAT donor substrate (conjugate, UniProt P0A6A8 2-78, looked up, 18:1 acyl thioester, 18:1 acyl-ACP tested as LPAAT donor substrate) Acyl carrier protein: STIEERVKKIIGEQLGVKQEEVTNNASFVEDLGADSLDTVELVMALEEEFDTEIPDEEAEKITTVQAAIDYINGHQA",utilization as LPAAT donor substrate instead of 18:1-CoA,bay LPAAT; bay P2 preparation,will not significantly utilize
